Patent US9883997B2, “Cosmetic compositions with tricyclodecane amides” (Conopco, Inc., priority 2013, dated 2018)

Tests used:
[1] = solid cosmetic agents, Table 1; cited from earlier work
[2] = Precursor cosmetic compositions evaluated for crystals content, i.e. solubility of solid agent in the liquid agent (Example 29); type: physicochemical
Protocol: The following precursor cosmetic compositions were prepared and evaluated for crystals content, i.e. solubility of solid agent in the liquid agent.
The composition is heated to a temperature above the melting point of the highest melting compound, then allowed to cool to room temperature. […] In the case of end use cosmetic compositions visualization of the crystals of solid agent was done by comparing a sample with and without tricyclodecane amide and observing the formation of crystals, if any, under the optical microscope fitted with cross-polarizers at a magnification of 10× or higher.

CC(C)CCC[C@@H](C)[C@H]1CC[C@H]2[C@@H]3CC=C4C[C@@H](O)CC[C@]4(C)[C@H]3CC[C@]12C [cholesterol]
Log Po/w [1]: 9.62 | Appearance after cooling - observation at 24 hours, except as noted ([2]; Cholesterol (16%) in OMC (84%), [S]/[L] 0.2, no tricyclodecaneamide, 24 hours): crystal + liquid | Appearance after cooling - observation at 24 hours, except as noted ([2]; Cholesterol (20%) in conjugated linoleic acid (80%), [S]/[L] 0.2, no tricyclodecaneamide, 24 hours): crystals + liquid | Appearance after cooling - observation at 24 hours, except as noted ([2]; Cholesterol (20%) in retinol proprionate (80%), [S]/[L] 0.3, no tricyclodecaneamide, observation at 12 hours): opaque solid
